Legend:
wild oat = test: Test B pre/postemergence wild oat; assay type: in vivo, Avena fatua
Outline: (§1)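 Response is a visual 0-to-10 score relative to untreated plants, where 0 means no effect and 10 means complete control, taken twelve to sixteen days after application. Treatments went onto soil at planting and onto foliage of 1- to 4-leaf plants, using a surfactant-containing non-phytotoxic solvent.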

giant foxtail = test: Test B pre/postemergence giant foxtail; assay type: in vivo, Setaria faberii
Outline: as §1

wheat = test: Test B pre/postemergence wheat; assay type: in vivo, Triticum aestivum
Outline: as §1

velvetleaf = test: Test B pre/postemergence velvetleaf; assay type: in vivo, Abutilon theophrasti
Outline: as §1

blackgrass = test: Test B pre/postemergence blackgrass; assay type: in vivo, Alopecurus myosuroides
Outline: as §1

bamyardgrass = test: Test B flood test barnyardgrass; assay type: in vivo, Echinochloa crus-galli
Outline: (§2)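 Read-out is a visual response score from 0 (no effect) to 10 (complete control), assigned by comparison with untreated controls. Treatment was applied at the 2-leaf stage, and plants stayed in the greenhouse for twelve to sixteen days before scoring.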

pigweed = test: Test B pre/postemergence pigweed; assay type: in vivo, Amaranthus retroflexus
Outline: as §1

morningglory = test: Test B pre/postemergence morningglory; assay type: in vivo, Ipomoea hederacea
Outline: as §1

sugar beet = test: Test B pre/postemergence sugar beet; assay type: in vivo, Beta vulgaris
Outline: as §1

rice = test: Test B flood test rice; assay type: in vivo, Oryza sativa
Outline: as §2

crabgrass = test: Test B pre/postemergence crabgrass; assay type: in vivo, Digitaria sanguinalis
Outline: as §1

duck salad = test: Test B flood test duck salad; assay type: in vivo, Heteranthera limosa
Outline: as §2

surinam grass = test: Test B pre/postemergence surinam grass; assay type: in vivo, Brachiaria decumbens
Outline: as §1

purple nutsedge = test: Test B pre/postemergence purple nutsedge; assay type: in vivo, Cyperus rotundus
Outline: as §1

cocklebur = test: Test B pre/postemergence cocklebur; assay type: in vivo, Xanthium strumarium
Outline: as §1

[1] = Postemergence, Rate 250 g/ha, scale 0 to 10
[2] = Postemergence, Rate 500 g/ha, scale of 0 to 10 where 0 is no effect and 10 is complete control
[3] = Preemergence, Rate 62 g/ha, scale of 0 to 10 where 0 is no effect and 10 is complete control
[4] = Preemergence, Rate 125 g/ha, scale of 0 to 10 where 0 is no effect and 10 is complete control
[5] = Preemergence, Rate 250 g/ha, scale 0 to 10, 0 is no effect, 10 is complete control
[6] = Preemergence, Rate 500 g/ha, scale 0 to 10, 0 is no effect, 10 is complete control
[7] = Rate 62 g/ha, Postemergence, scale 0 to 10 (0 no effect, 10 complete control)
[8] = Rate 125 g/ha, Postemergence, scale 0 to 10, 0 is no effect, 10 is complete control
[9] = Rate 62 g/ha, flood test species, Pre-emergence, visual evaluation after twelve to sixteen days
[10] = Rate 125 g/ha, under heading Pre-emergence, flood test species, visual evaluation after twelve to sixteen days
[11] = Rate 250 g/ha, Pre-emergence (flood test species), scale 0 to 10, 0 is no effect, 10 is complete control
[12] = Rate 500 g/ha, Pre-emergence, flood test species, scale 0 to 10 (0 no effect, 10 complete control)

CC(C)N(C(=O)n1oc(=O)n(CCC#N)c1=O)c1ccc(Cl)cc1 [Compound 444]
1: Morningglory plant response rating (morningglory; [1]) | B. signalgrass plant response rating (surinam grass; [5])
3: Velvetleaf plant response rating (velvetleaf; [2]) | Morningglory plant response rating (morningglory; [2]) | Sugarbeets plant response rating (sugar beet; [2])
2: Wild oats plant response rating (wild oat; [2]) | Blackgrass plant response rating (blackgrass; [8]) | Redroot pigweed plant response rating (pigweed; [2]) | Redroot pigweed plant response rating (pigweed; [8]) | Crabgrass plant response rating (crabgrass; [7]) | Crabgrass plant response rating (crabgrass; [8])
0: Wild oats plant response rating (wild oat; [1]) | Plant response rating, Wild oats (wild oat; [3]) | Plant response rating, Wild oats (wild oat; [4]) | Wild oats plant response rating (wild oat; [5]) | Wild oats plant response rating (wild oat; [7]) | Wild oats plant response rating (wild oat; [8]) | Wheat plant response rating (wheat; [1]) | Wheat plant response rating (wheat; [2]) | Plant response rating, Wheat (wheat; [3]) | Plant response rating, Wheat (wheat; [4]) | Wheat plant response rating (wheat; [5]) | Wheat plant response rating (wheat; [6]) | Wheat plant response rating (wheat; [7]) | Wheat plant response rating (wheat; [8]) | Velvetleaf plant response rating (velvetleaf; [1]) | Plant response rating, Velvetleaf (velvetleaf; [3]) | Plant response rating, Velvetleaf (velvetleaf; [4]) | Velvetleaf plant response rating (velvetleaf; [5]) | Velvetleaf plant response rating (velvetleaf; [7]) | Velvetleaf plant response rating (velvetleaf; [8]) | Plant response rating, Blackgrass (blackgrass; [3]) | Plant response rating, Blackgrass (blackgrass; [4]) | Blackgrass plant response rating (blackgrass; [7]) | Plant response rating, Barnyardgrass (0 to 10 scale, 0 is no effect, 10 is complete control) (bamyardgrass; [9]) | Barnyardgrass plant response rating (0 to 10 scale, 0 is no effect, 10 is complete control) (bamyardgrass; [10]) | Barnyardgrass plant response rating (bamyardgrass; [11]) | Barnyardgrass plant response rating (bamyardgrass; [12]) | Redroot pigweed plant response rating (pigweed; [7]) | Plant response rating, Morningglory (morningglory; [3]) | Plant response rating, Morningglory (morningglory; [4]) | Morningglory plant response rating (morningglory; [5]) | Morningglory plant response rating (morningglory; [6]) | Morningglory plant response rating (morningglory; [7]) | Morningglory plant response rating (morningglory; [8]) | Sugarbeets plant response rating (sugar beet; [1]) | Plant response rating, Sugarbeets (sugar beet; [3]) | Plant response rating, Sugarbeets (sugar beet; [4]) | Sugarbeets plant response rating (sugar beet; [5]) | Sugarbeets plant response rating (sugar beet; [6]) | Sugarbeets plant response rating (sugar beet; [7]) | Sugarbeets plant response rating (sugar beet; [8]) | Plant response rating, Rice (0 to 10 scale, 0 is no effect, 10 is complete control) (rice; [9]) | Rice plant response rating (0 to 10 scale, 0 is no effect, 10 is complete control) (rice; [10]) | Rice plant response rating (rice; [11]) | Rice plant response rating (rice; [12]) | Plant response rating, Ducksalad (0 to 10 scale, 0 is no effect, 10 is complete control) (duck salad; [9]) | Ducksalad plant response rating (0 to 10 scale, 0 is no effect, 10 is complete control) (duck salad; [10]) | Ducksalad plant response rating (duck salad; [11]) | Ducksalad plant response rating (duck salad; [12]) | Plant response rating, B. signalgrass (surinam grass; [3]) | Plant response rating, B. signalgrass (surinam grass; [4]) | B. signalgrass plant response rating (surinam grass; [7]) | B. signalgrass plant response rating (surinam grass; [8]) | Nutsedge plant response rating (purple nutsedge; [1]) | Nutsedge plant response rating (purple nutsedge; [2]) | Plant response rating, Nutsedge (purple nutsedge; [3]) | Plant response rating, Nutsedge (purple nutsedge; [4]) | Nutsedge plant response rating (purple nutsedge; [5]) | Nutsedge plant response rating (purple nutsedge; [6]) | Nutsedge plant response rating (purple nutsedge; [7]) | Nutsedge plant response rating (purple nutsedge; [8]) | Cocklebur plant response rating (cocklebur; [1]) | Cocklebur plant response rating (cocklebur; [2]) | Plant response rating, Cocklebur (cocklebur; [3]) | Plant response rating, Cocklebur (cocklebur; [4]) | Cocklebur plant response rating (cocklebur; [5]) | Cocklebur plant response rating (cocklebur; [6]) | Cocklebur plant response rating (cocklebur; [7]) | Cocklebur plant response rating (cocklebur; [8])
7: Giant foxtail plant response rating (giant foxtail; [8]) | Blackgrass plant response rating (blackgrass; [2])
4: Wild oats plant response rating (wild oat; [6]) | Giant foxtail plant response rating (giant foxtail; [7]) | Velvetleaf plant response rating (velvetleaf; [6]) | Plant response rating, Crabgrass (crabgrass; [3]) | B. signalgrass plant response rating (surinam grass; Postemergence, Rate 250 g/ha, scale 0 to 10, 0 no effect, 10 complete control) | B. signalgrass plant response rating (surinam grass; [2])
8: Giant foxtail plant response rating (giant foxtail; [1]) | Blackgrass plant response rating (blackgrass; [5]) | Blackgrass plant response rating (blackgrass; [6]) | B. signalgrass plant response rating (surinam grass; [6])
9: Giant foxtail plant response rating (giant foxtail; [2]) | Plant response rating, Giant foxtail (giant foxtail; [3]) | Plant response rating, Giant foxtail (giant foxtail; [4]) | Crabgrass plant response rating (crabgrass; [1]) | Crabgrass plant response rating (crabgrass; [2]) | Crabgrass plant response rating (crabgrass; [5])
10: Giant foxtail plant response rating (giant foxtail; [5]) | Giant foxtail plant response rating (giant foxtail; [6]) | Plant response rating, Redroot pigweed (pigweed; [3]) | Plant response rating, Redroot pigweed (pigweed; [4]) | Redroot pigweed plant response rating (pigweed; [5]) | Redroot pigweed plant response rating (pigweed; [6]) | Crabgrass plant response rating (crabgrass; [6])
5: Blackgrass plant response rating (blackgrass; [1]) | Plant response rating, Crabgrass (crabgrass; [4])
